Legend:
[1] = target: T1, Gastrin/cholecystokinin type B receptor (Homo sapiens, UniProt P32239)
T1 sequence (P32239 whole entry): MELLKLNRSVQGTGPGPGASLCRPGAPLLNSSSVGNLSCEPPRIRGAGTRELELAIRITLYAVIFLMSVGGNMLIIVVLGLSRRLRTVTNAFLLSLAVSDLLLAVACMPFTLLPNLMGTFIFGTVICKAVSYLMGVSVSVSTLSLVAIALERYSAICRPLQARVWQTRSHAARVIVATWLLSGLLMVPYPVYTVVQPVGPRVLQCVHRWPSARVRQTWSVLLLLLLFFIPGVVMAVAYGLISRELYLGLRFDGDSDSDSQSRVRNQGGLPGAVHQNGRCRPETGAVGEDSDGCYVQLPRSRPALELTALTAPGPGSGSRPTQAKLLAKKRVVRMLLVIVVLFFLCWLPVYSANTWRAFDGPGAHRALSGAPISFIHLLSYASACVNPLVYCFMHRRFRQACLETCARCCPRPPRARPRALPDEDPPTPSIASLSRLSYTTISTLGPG
Description: Displacement of [125I]CCK-8S from human CCK2R

[2] = target: T2, Cholecystokinin receptor type A (Homo sapiens, UniProt P32238)
T2 sequence (P32238 whole entry): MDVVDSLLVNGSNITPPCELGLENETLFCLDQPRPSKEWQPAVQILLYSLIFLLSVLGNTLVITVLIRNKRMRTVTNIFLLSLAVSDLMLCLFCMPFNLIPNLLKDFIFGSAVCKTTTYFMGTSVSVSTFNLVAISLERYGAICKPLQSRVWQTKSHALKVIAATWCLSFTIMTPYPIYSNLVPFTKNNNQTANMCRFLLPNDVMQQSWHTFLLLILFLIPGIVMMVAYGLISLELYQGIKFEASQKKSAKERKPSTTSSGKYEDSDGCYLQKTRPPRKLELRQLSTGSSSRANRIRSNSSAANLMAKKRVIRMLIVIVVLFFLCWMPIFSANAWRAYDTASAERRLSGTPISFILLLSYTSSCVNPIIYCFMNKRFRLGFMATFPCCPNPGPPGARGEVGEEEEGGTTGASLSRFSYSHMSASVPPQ
Description: Displacement of [125I]CCK-8S from human CCK1R

Compound	Ki ([1]; read-out: Ki) [µM]	Ki ([2]; read-out: Ki) [µM]	Ki ([1]; read-out: Log Ki (converted)) [µM]	Ki ([2]; read-out: Log Ki (converted)) [µM]
O=C(c1ccccc1NS(=O)(=O)c1cccc2nsnc12)N1CCCCC1	> 10	–	–	–
O=C(c1ccc(Br)cc1NS(=O)(=O)c1cccc2ccccc12)N1CCCCC1	> 10	> 10	–	–
CC(=O)Nc1ccc(C(=O)N2CCCCC2)c(NS(=O)(=O)c2cccc3nsnc23)c1	> 10	> 10	–	–
Cc1cccc(C(=O)N2CCCCC2)c1NS(=O)(=O)c1cccc2nsnc12	> 10	> 10	–	–
CC(C)c1ccc(C(=O)N2CCCCC2)c(NS(=O)(=O)c2cccc3nsnc23)c1	–	> 10	0.316	–
CCc1ccc(C(=O)N2CCCCC2)c(NS(=O)(=O)c2cccc3nsnc23)c1	–	> 10	0.251	–
O=C(c1ccc(Br)cc1NS(=O)(=O)c1cccc2nccnc12)N1CCOCC1	–	> 10	–	–
O=C(c1ccccc1NS(=O)(=O)c1cccc2nsnc12)N1CCOCC1	> 10	> 10	–	–
O=C(c1ccc(Cl)cc1NS(=O)(=O)c1cccc2nsnc12)N1CCCC1	–	> 10	0.251	–
O=C(c1ccc(C(F)(F)F)cc1NS(=O)(=O)c1cccc2nsnc12)N1CCCCC1	–	> 10	0.0631	–
O=C(c1ccc(Cl)cc1NS(=O)(=O)c1cccc2nsnc12)N1CCSC1	–	> 10	–	–
O=C(c1ccc(Br)cc1NS(=O)(=O)c1ccc2nsnc2c1)N1CCCCC1	–	> 10	> 10	–
O=C(c1ccc(Cl)cc1NS(=O)(=O)c1cccc2nsnc12)N1CCC(N2CCCCC2)CC1	> 10	> 10	–	–
O=C(N[C@@H](Cc1ccccc1)C(=O)O)c1ccccc1NS(=O)(=O)c1cc2ccccc2[nH]1	–	–	5.01	–
Nc1ccc(C(=O)N2CCCCC2)c(NS(=O)(=O)c2cccc3nsnc23)c1	–	> 10	7.94	–
COc1cc(C(=O)N2CCCCC2)c(NS(=O)(=O)c2cccc3nsnc23)cc1Cl	–	> 10	0.501	–
O=C(c1ccc(Br)cc1NS(=O)(=O)c1ccc(Br)c2nsnc12)N1CCCCC1	–	> 10	0.158	–
O=C(c1ccc(Cl)cc1NS(=O)(=O)c1cccc2nsnc12)N1CCC(CO)CC1	–	> 10	1.26	–
O=C(c1cccc(Cl)c1NS(=O)(=O)c1cccc2nsnc12)N1CCCCC1	> 10	> 10	–	–
O=C(c1ccc(-c2ccccc2)cc1NS(=O)(=O)c1cccc2nsnc12)N1CCCCC1	–	> 10	0.158	–
O=C(c1ccc(OC2CCCC2)cc1NS(=O)(=O)c1cccc2nsnc12)N1CCCCC1	–	> 10	0.158	–

Compound	Ki ([1]; read-out: Ki) [µM]	Ki ([2]; read-out: Ki) [µM]	Ki ([1]; read-out: Log Ki (converted)) [µM]	Ki ([2]; read-out: Log Ki (converted)) [µM]
Cc1ccc2nsnc2c1S(=O)(=O)Nc1cc(Br)ccc1C(=O)N1CCCCC1	–	> 10	0.1	–
O=C(c1ccc(F)cc1NS(=O)(=O)c1cccc2nsnc12)N1CCOCC1	–	> 10	3.98	–
O=C(c1c(Cl)cccc1NS(=O)(=O)c1cccc2nsnc12)N1CCCCC1	–	> 10	1	–
O=C(c1ccc(NCc2ccccc2)cc1NS(=O)(=O)c1cccc2nsnc12)N1CCCCC1	–	> 10	1.26	–
O=C(c1ccc(F)cc1NS(=O)(=O)c1cccc2nsnc12)N1CCCCC1	–	–	1	–
O=C(N[C@@H](Cc1ccccc1)C(=O)O)c1ccc(Br)cc1NS(=O)(=O)c1cc2ccccc2[nH]1	–	–	2	–
O=C(c1ccc(Br)cc1NS(=O)(=O)c1cccc2nsnc12)N1CCOCC1	–	> 10	0.126	–
O=C(O)c1ccc(C(=O)N2CCCCC2)c(NS(=O)(=O)c2cccc3nsnc23)c1	> 10	> 10	–	–
O=C(c1ccc(Cl)cc1NS(=O)(=O)c1cccc2nsnc12)N1CCC1	–	> 10	1.58	–
Cc1ccc(S(=O)(=O)Nc2cc(Br)ccc2C(=O)N2CCCCC2)c2nsnc12	–	> 10	0.1	–
C[C@H]1COC[C@H](C)N1C(=O)c1ccc(Cl)cc1NS(=O)(=O)c1cccc2nccnc12	–	> 10	5.01	–
O=C(c1ccc(Br)cc1NS(=O)(=O)c1cccc2cnccc12)N1CCCCC1	> 10	> 10	–	–
CC1CC(C)CN(C(=O)c2ccc(Cl)cc2NS(=O)(=O)c2cccc3nsnc23)C1 (stereo unspecified)	–	> 10	1.26	–
O=C(c1ccc(CS)cc1NS(=O)(=O)c1cccc2nsnc12)N1CCCCC1	–	> 10	0.1	–
O=C(Nc1ccc(C(=O)N2CCCCC2)c(NS(=O)(=O)c2cccc3nsnc23)c1)c1ccccc1	–	–	7.94	–
O=C(c1ccc(Cl)cc1NS(=O)(=O)c1cccc2nsnc12)N1CCOCC1	–	> 10	0.316	–
O=C(c1cc(Br)c(Br)cc1NS(=O)(=O)c1cccc2nsnc12)N1CCCCC1	–	> 10	0.01	–
O=C(O)[C@@H]1CCCN1C(=O)c1ccc(Cl)cc1NS(=O)(=O)c1cccc2nsnc12	> 10	> 10	–	–
O=C(c1ccc(F)cc1NS(=O)(=O)c1cccc2nccnc12)N1CCOCC1	–	> 10	3.98	–
O=C(c1ccc(Br)cc1NS(=O)(=O)c1cccc2ncccc12)N1CCCCC1	–	> 10	0.794	–
O=C(c1ccc(Cl)cc1NS(=O)(=O)c1cccc2cccnc12)N1CCCCC1	> 10	> 10	–	–

Compound	Ki ([1]; read-out: Ki) [µM]	Ki ([2]; read-out: Ki) [µM]	Ki ([1]; read-out: Log Ki (converted)) [µM]	Ki ([2]; read-out: Log Ki (converted)) [µM]
O=C(c1cc(Br)ccc1NS(=O)(=O)c1cccc2nsnc12)N1CCCCC1	–	–	0.794	–
O=C(Nc1cc(Br)ccc1C(=O)N1CCCCC1)c1cccc2nsnc12	> 10	> 10	–	–
O=C(c1ccc(-n2cccc2)cc1NS(=O)(=O)c1cccc2nsnc12)N1CCCCC1	–	> 10	0.501	–
COc1cc(NS(=O)(=O)c2cccc3nsnc23)c(C(=O)N2CCCCC2)cc1OC	–	> 10	2.51	–
O=C(NCc1ccccc1)c1ccc(Cl)cc1NS(=O)(=O)c1cccc2nsnc12	–	> 10	2.51	–
CN(c1cc(Br)ccc1C(=O)N1CCCCC1)S(=O)(=O)c1cccc2nsnc12	> 10	> 10	–	–
O=C(c1ccc(Cl)cc1NS(=O)(=O)c1cccc2nccnc12)N1CCOCC1	–	> 10	–	–
COc1ccc(C(=O)N2CCCCC2)c(NS(=O)(=O)c2cccc3nsnc23)c1	–	> 10	0.631	–
O=C(c1ccc(I)cc1NS(=O)(=O)c1cccc2nsnc12)N1CCCCC1	–	> 10	0.00501	–
CC1CN(C(=O)c2ccc(Cl)cc2NS(=O)(=O)c2cccc3nsnc23)CCN1 (stereo unspecified)	> 10	> 10	–	–
O=C(Nc1ccccc1C(=O)NC(Cc1ccccc1)C(=O)O)c1cc2ccccc2[nH]1 (stereo unspecified)	> 10	–	–	0.0316
O=C(c1ccc(Cl)cc1NS(=O)(=O)c1cccc2nsnc12)N1CCC(c2ccccc2)CC1	–	> 10	0.0631	–
O=C(c1ccc(Br)cc1NS(=O)(=O)c1c(F)ccc2nsnc12)N1CCCCC1	–	> 10	0.0398	–
O=C(c1ccc(Cl)c(NS(=O)(=O)c2cccc3nsnc23)c1)N1CCCCC1	> 10	> 10	–	–
C[C@@H]1COC[C@H](C)N1C(=O)c1ccc(Cl)cc1NS(=O)(=O)c1cccc2nccnc12	–	> 10	0.631	–
O=C(c1ccc(I)cc1NS(=O)(=O)c1cccc2nsnc12)N1CCOCC1	–	> 10	–	–
O=C(c1ccc(Cl)cc1NS(=O)(=O)c1cccc2nsnc12)N1CCC[C@H]1CN1CCCC1	> 10	> 10	–	–
C[C@@H]1C=C[C@H](C)N1C(=O)c1ccc(Cl)cc1NS(=O)(=O)c1cccc2nsnc12	–	> 10	0.2	–
O=C(c1ccc([N+](=O)[O-])cc1NS(=O)(=O)c1cccc2nsnc12)N1CCCCC1	–	> 10	–	–
